# Measurements reported in paper PMC9269301, “Phytochemical Analysis, Antioxidant, Antimicrobial, and Cytotoxic Activity of Different Extracts of Xanthoparmelia stenophylla Lichen from Stara Planina, Serbia” (Plants, 2022).
# Where two headings read alike, the source gives them in different places. Marks after values point to notes of the source that are not given here.
# Tests used:
# [1] = test system: S. Typhimurium (isolate); assay: Microdilution with resazurin, antibacterial; type: cell-based, Salmonella Typhimurium
# Method: (§1) The tested methanol, acetone, and n-hexane extracts, as well as the component (usnic acid) of X. stenophylla, were dissolved in 10% dimethyl sulfoxide (DMSO) and then diluted into the nutrient liquid medium. DMSO was obtained from Acros Organics (Fair Lawn, NJ, USA). Resazurin was obtained from Alfa Aesar GmbH & Co. (KG, Karlsruhe, Germany).
# (§2) The antimicrobial activity of the extracts and components was tested against 19 microorganisms. The experiment involved 15 strains of bacteria (i.e., 6 standard strains: Staphylococcus aureus ATCC 6538, Bacillus subtilis ATCC 6633, Proteus mirabilis ATCC 12453, Pseudomonas aeruginosa ATCC 27853, Klebsiella pneumoniae ATCC 70063, and Escherichia coli ATCC 25922; 9 isolates: Staphylococcus aureus, Escherichia coli, Salmonella enterica, Salmonella Typhimurium, Proteus mirabilis, Klebsiella pneumoniae, Pseudomonas aeruginosa, Bacillus subtilis, and Bacillus cereus). In addition, four fungal strains (i.e., two standard strains: Candida albicans ATCC 10231 and Aspergillus niger ATCC 16888; two isolates: Saccharomyces cerevisiae and Candida albicans) were tested. All isolates were a generous gift from the Institute of Public Health, Kragujevac. The other microorganisms were provided from the collection held by the Microbiology Laboratory Faculty of Science, University of Kragujevac.
# (§3) The bacterial suspensions were prepared by the direct colony method. The turbidity of the initial suspension was adjusted using a densitometer (DEN-1, BioSan, Riga, Latvia). When adjusted to the turbidity of the 0.5 McFarland’s standard (Andrews, 2005) the bacteria suspension contained approximately 10^8 colony-forming units (CFU)/mL, and the suspension of yeast contained 10^6 CFU/mL; 1:100 dilutions of the initial suspension were additionally prepared in sterile 0.85% saline. The suspensions of fungal spores were prepared by gentle stripping of spores from slopes with growing mycelia. The resulting suspensions were 1:1000 diluted in sterile 0.85% saline.
# (§4) Antimicrobial activity was tested by determining the minimum inhibitory concentrations (MICs) and minimum microbicidal concentrations (MBCs) using the microdilution plate method with resazurin [56]. The 96-well plates were prepared by dispensing 100 μL of Mueller–Hinton broth for bacteria and Sabouard broth for fungi into each well. A 10 μL aliquot from the stock solution of the tested extract or component was added to the first row of the plate. Then, two-fold serial dilutions were performed using a multichannel pipette. The obtained concentration range was from 10 to 0.08 mg/mL. The method is described in detail in [76].
# (§5) Each test included growth control and sterility control.
# (§6) Minimum microbicidal concentrations were determined by plating 10 μL of samples from wells where no indicator color change or no mycelia growth was recorded on a nutrient agar medium. At the end of the incubation period, the lowest concentration with no growth (no colony) was defined as the minimum microbicidal concentration.
# [2] = test system: B. subtilis (isolate); assay: Microdilution with resazurin, antibacterial; type: cell-based, Bacillus subtilis
# Method: as §1, §2, §3, §4, §5, §6
# [3] = test system: B. subtilis ATCC 6633; assay: Microdilution with resazurin, antibacterial; type: cell-based, Bacillus subtilis
# Method: as §1, §2, §3, §4, §5, §6
# [4] = test system: S. aureus (isolate); assay: Microdilution with resazurin, antibacterial; type: cell-based, Staphylococcus aureus
# Method: as §1, §2, §3, §4, §5, §6
# [5] = test system: S. aureus ATCC 6538; assay: Microdilution with resazurin, antibacterial; type: cell-based, Staphylococcus aureus
# Method: as §1, §2, §3, §4, §5, §6
# [6] = Hydroxyl radical scavenging activity (2-deoxyribose); type: biochemical; details: mean ± SD, triplicate
# Method: All chemicals for the antioxidant activity test were purchased from Sigma Aldrich. All measurements were conducted in triplicate, and a Shimadzu UV-1800 spectrophotometer was used for all measurements during antioxidant activity experiments. The IC50 value was used for comparing different radical scavenging effects between investigated extracts, isolated compounds, and positive controls. The ability to inhibit non-site-specific peroxidation mediated by hydroxyl radicals for […], and XSH was determined using the method previously described in the literature. During the experiment, in a reaction mixture that contained 500 μL of 5.6 mM 2-deoxy-D-ribose in KH2PO4-NaOH buffer (50 mM, pH 7.4), 100 μL of 1.0 mM aqueous ascorbic acid, 100 μL of 1.0 mM H2O2, and 200 μL of premixed solution of 100 μM FeCl3 and […] EDTA (1:1 v/v), 100 μL of extract dissolved in water was added. The tubes were vigorously shaken, vortexed, and incubated for 30 min at 50 °C. […] The mixture was vortexed again and heated in a water bath for 30 min at 50 °C. […] Ac stands for absorbance of the control (which contains all reagents, except the tested extract or compound), and As is the absorbance of the sample.
# [7] = Superoxide anion radical scavenging activity (NBT/NADH/PMS); type: biochemical; details: mean ± SD, triplicate
# Method: All chemicals for the antioxidant activity test were purchased from Sigma Aldrich. All measurements were conducted in triplicate, and a Shimadzu UV-1800 spectrophotometer was used for all measurements during antioxidant activity experiments. The IC50 value was used for comparing different radical scavenging effects between investigated extracts, isolated compounds, and positive controls. […] [75] with modifications. […] To initiate the reaction, 0.1 mL of phenazine methosulfate (PMS) solution ([…] in 0.1 M phosphate buffer at pH 7.4) was added to each tube. The mixture was incubated at room temperature for 5 min, and then the absorbance was measured at 560 nm relative to the blank. Ascorbic acid, gallic acid, and Trolox were used as positive controls, and a decrease in absorbance indicated increased superoxide anion radical scavenging activity. […] Ac stands for absorbance of the control (which contains all reagents, except the tested extract or compound), and As is the absorbance of the sample.
# [8] = test system: MRC-5 cells (nontransformed human lung fibroblast); assay: MTT assay; type: cell-based
# [9] = test system: HeLa cells (cervical adenocarcinoma); assay: MTT assay; type: cell-based, human; details: HeLa
# [10] = test system: MDA-MB 231 cells (breast cancer); assay: MTT assay; type: cell-based, human; details: data not shown
molecule,measurement,setting,value
"CN(C)[C@@H]1C(O)=C(C(N)=O)C(=O)[C@@]2(O)C(O)=C3C(=O)c4c(O)cccc4[C@@](C)(O)[C@H]3C[C@@H]12 [TC, tetracycline]",MBC,"[1]; Salmonella enterica, antibiotics, read-out: MBC",2 µg/mL
same,MBC,"[2]; Bacillus subtilis, antibiotics, read-out: MBC",0.25 µg/mL
same,MIC,"[2]; Bacillus subtilis, antibiotics, read-out: MIC",< 0.06 µg/mL
same,MBC,"[3]; Bacillus subtilis, ATCC6633, antibiotics, read-out: MBC",0.37 µg/mL
same,MIC,"[3]; Bacillus subtilis, ATCC6633, antibiotics, read-out: MIC",0.25 µg/mL
same,MBC,"[4]; Staphylococcus aureus, antibiotics, read-out: MBC",< 0.06 µg/mL
same,MIC,"[4]; Staphylococcus aureus, antibiotics, read-out: MIC",< 0.06 µg/mL
same,MBC,"[5]; Staphylococcus aureus, ATCC6538, antibiotics, read-out: MBC",6 µg/mL
same,MIC,"[5]; Staphylococcus aureus, ATCC6538, antibiotics, read-out: MIC",3 µg/mL
usnic acid,Hydroxyl Radical Scavenging Activity (IC50),[6],"120.05 ± 0.85 ^a,b,c,d µg/mL"
same,Superoxide Anion Radical Scavenging Activity (IC50),[7],"90.32 ± 0.95 ^a,b,c,d µg/mL"
same,MBC,[1]; extracts and usnic acid,<10000 µg/mL
same,MIC,[1]; extracts and usnic acid,<10000 µg/mL
same,MBC,[2]; extracts and usnic acid,<80 µg/mL
same,MIC,[2]; extracts and usnic acid,<80 µg/mL
same,MBC,[3]; extracts and usnic acid,<80 µg/mL
same,MIC,[3]; extracts and usnic acid,<80 µg/mL
same,MBC,[4]; extracts and usnic acid,156 µg/mL
same,MIC,[4]; extracts and usnic acid,156 µg/mL
same,MBC,[5]; extracts and usnic acid,625 µg/mL
same,MIC,[5]; extracts and usnic acid,312.5 µg/mL
same,GI50 (50% growth inhibition),"[8]; MRC-5, 24 h",42.97 ± 1.56 µg/mL
same,IC50,"[8]; MRC-5, 24 h",66.18 ± 1.72 µg/mL
same,TGI (total growth inhibition),"[8]; MRC-5, 24 h",>100 µg/mL
same,GI50 (50% growth inhibition),"[8]; MRC-5, 48 h",41.31 ± 0.56 µg/mL
same,IC50,"[8]; MRC-5, 48 h",78.54 ± 0.87 µg/mL
same,TGI (total growth inhibition),"[8]; MRC-5, 48 h",93.25 ± 0.08 µg/mL
same,GI50 (50% growth inhibition),"[8]; MRC-5, 72 h",36.73 ± 0.92 µg/mL
same,IC50,"[8]; MRC-5, 72 h",53.14 ± 1.04 µg/mL
same,TGI (total growth inhibition),"[8]; MRC-5, 72 h",89.15 ± 0.25 µg/mL
same,GI50 (50% growth inhibition),[9]; 24 h,>100 µg/mL
same,IC50,[9]; 24 h,>100 µg/mL
same,TGI (total growth inhibition),[9]; 24 h,>100 µg/mL
same,GI50 (50% growth inhibition),[9]; 48 h,99.16 ± 15.59 µg/mL
same,IC50,[9]; 48 h,>100 µg/mL
same,TGI (total growth inhibition),[9]; 48 h,>100 µg/mL
same,GI50 (50% growth inhibition),[9]; 72 h,64.28 ± 8.34 µg/mL
same,TGI (total growth inhibition),[9]; 72 h,86.91 ± 5.42 µg/mL
same,IC50,"[9]; 72 h, listed as UA",>100 µg/mL
same,"Overall inhibitory effect (MTT), in words",[10],of minor importance
